Laboratory results as given in patent US5001158A, “Nitrosoureas compounds preparation thereof and utilization thereof in anticancerous” (Centre National de la Recherche Scientifique, priority 1990, dated 1991).

Tests used:
[1] = Pharmacokinetic comparison of mixture A1 A2 with CNCC, all animal species; type: in vivo, mice, rats and rabbits; details: p.o.
Protocol: (§1) The plasma absorption and clearance kinetics of the products A1 and A2 according to the invention were studied on different animal species after oral administration. A mixture A1 A2 in the proportions 70%/30% was used so as to be able to make a comparison with CNCC. The mixture A1 A2 and the CNCC were administered at equivalent doses and the plasma concentrations of A1 and A2 were measured as a function of time. cl (a) Experimental protocol
(§2) A solution of the mixture A1 A2 in distilled water is administered by stomach tube at a dose of 574 mg/m^2. A suspension of CNCC in olive oil is administered at a dose of 500 mg/m^2, also by stomach tube.
(§3) The blood, taken by cardiac puncture, is centrifuged rapidly at 4° C. The plasma (1 ml) is deposited on a cartridge of Extrelut® and extraction is carried out with 6 ml of methylene chloride. After evaporation, the dry extract is taken up in 150 μl of methylene chloride for chromatographic analysis.
(§4) Analysis of the plasma extracts for measuring the concentrations of A1 and A2 was performed by high performance liquid chromatography using the following technology:
The plasma concentrations of A1 and A2 after oral administration of either the mixture A1 A2 or CNCC to mice, rats and rabbits are reported in Table V.

[2] = Plasma concentrations of A1 and A2 after oral administration, mice; type: in vivo; details: mouse, n = 10; for concentration at 1.5 h: 1 H 30 MIN; for concentration: 3 H; for concentration at 4.5 h: 4 H 30 MIN; for concentration at 0.25 h: 15 MIN; for concentration at 0.5 h: 30 MIN; for concentration at 0.75 h: 45 MIN
Protocol: as §1, §2, §3, §4
(§5) Detector: Pye Unicam spectrophotometer (Philips)λ250 nm.
(§6) Elution carried out by means of a linear gradient ranging from methylene chloride 99.6%/ethanol 0.4% to methylene chloride 95%/ethanol 5% in 15 minutes

[3] = Plasma concentrations of A1 and A2 after oral administration, rabbits; type: in vivo; details: rabbit, n = 5; for concentration at 1.5 h: 1 H 30 MIN; for concentration: 3 H; for concentration at 4.5 h: 4 H 30 MIN; for concentration at 0.25 h: 15 MIN; for concentration at 0.5 h: 30 MIN; for concentration at 0.75 h: 45 MIN
Protocol: as §1, §2, §3, §4, §5, §6

leukemia L 1210 = experiment: Antitumoral activity of A1 and A2 on leukemia L 1210 grafted i.p. in mice (ICIG); type: in vivo, mice (B6 D2 F1 OLA)
Protocol: This activity was also studied on mice carrying leukemia L 1210 grafted i.p. This experimental tumor is the one most frequently used in the primary screening of cytostatic drugs.
These tests were conducted in parallel in two laboratories: at Unit 71 of the Institut National de la Sante et de la Recberche Mediecale (INSERM), ClermontFerrand, and at the Institut de Cancerologie et d' Immunogenetique (ICIG), Villejuif.
On day D:0, three-month-old male B6 D2 F1 mice received 10^5 cells of the leukemia strain L 1210 by intraperitoneal administration. The animals are divided up into groups of 8 to 10 animals for the control groups and 6 to 8 animals for the treated groups. On days D:1, D:5 and D:9, the animals receive the treatment at different doses by intraperitoneal or intravenous administration. The CNCC is administered as a suspension in olive oil. The products according to the invention are administered in physiological serum. The mortality is recorded every day. The survival median was determined for the treated animals and the control animals. The results are considered to be positive if the index I= [formula] is greater than 125.
The value .infin. means that 50% to 100% of the animals have survived to day D:90.
The cytostatic activity oi A1 and A2 on leukemia L 1210 was evaluated on B6 D2 F1 OLA mice at ICIG.
ICIG also studied the antitumoral activity of each isomer A1 and A2, separately administered intravenously, on leukemia L 1210. […] Comparison of the active doses with those of CNCC is impossible because of the insolubility of CNCC, as mentioned previously.

[4] = Plasma concentrations of A1 and A2 after oral administration, rats; type: in vivo; details: rat, n = 5; for concentration at 1.5 h: 1 H 30 MIN; for concentration: 3 H; for concentration at 0.25 h: 15 MIN; for concentration at 0.5 h: 30 MIN; for concentration at 0.75 h: 45 MIN
Protocol: as §1, §2, §3, §4, §5, §6

[5] = after mixture A1 A2 574 mg/m^2 p.o.

C[S+]([O-])CCN(N=O)C(=O)NCCCl (centres unmarked) [Compound A1]
bioavailability compared with CNCC (in words) [1]: greater than that of CNCC
plasma concentrations after A1 A2 compared with after CNCC (in words) ([1]; equivalent doses, whatever the animal species): much higher
concentration at 1.5 h ([2]; after CNCC 500 mg/m^2 p.o.): 26.2 µM
concentration at 1 h ([2]; after CNCC 500 mg/m^2 p.o.): 37.1 µM
concentration at 2 h ([2]; after CNCC 500 mg/m^2 p.o.): 20.2 µM
concentration ([2]; after CNCC 500 mg/m^2 p.o.): 11 µM
concentration at 4.5 h ([2]; after CNCC 500 mg/m^2 p.o.): 6.5 µM
concentration at 5 min ([2]; after CNCC 500 mg/m^2 p.o.): 13.7 µM
concentration at 0.25 h ([2]; after CNCC 500 mg/m^2 p.o.): 34.2 µM
concentration at 0.5 h ([2]; after CNCC 500 mg/m^2 p.o.): 71.4 µM
concentration at 0.75 h ([2]; after CNCC 500 mg/m^2 p.o.): 32.8 µM
concentration at 1.5 h [2, 5]: 35.4 µM
concentration at 1 h [2, 5]: 88 µM
concentration at 2 h [2, 5]: 23.3 µM
concentration [2, 5]: 10.1 µM
concentration at 4.5 h [2, 5]: 4.3 µM
concentration at 5 min [2, 5]: 208 µM
concentration at 0.25 h [2, 5]: 206 µM
concentration at 0.5 h [2, 5]: 177 µM
concentration at 0.75 h [2, 5]: 124 µM
concentration at 1.5 h ([3]; after CNCC 500 mg/m^2 p.o.): 8.6 µM
concentration at 2 h ([3]; after CNCC 500 mg/m^2 p.o.): 7.4 µM
concentration ([3]; after CNCC 500 mg/m^2 p.o.): 4.7 µM
concentration at 4.5 h ([3]; after CNCC 500 mg/m^2 p.o.): 2.8 µM
concentration at 5 min ([3]; after CNCC 500 mg/m^2 p.o.): 5 µM
concentration at 0.25 h ([3]; after CNCC 500 mg/m^2 p.o.): 9.4 µM
concentration at 0.5 h ([3]; after CNCC 500 mg/m^2 p.o.): 10.6 µM
concentration at 0.75 h ([3]; after CNCC 500 mg/m^2 p.o.): 10 µM
concentration at 1.5 h [3, 5]: 27 µM
concentration at 1 h ([3]; after mixture A1 A2 574 mg/m^2 p.o., 1 H): 39.4 µM
concentration at 2 h [3, 5]: 19.4 µM
concentration [3, 5]: 10.6 µM
concentration at 4.5 h [3, 5]: 3.8 µM
concentration at 5 min [3, 5]: 26.7 µM
concentration at 0.25 h [3, 5]: 28.5 µM
concentration at 0.5 h [3, 5]: 41 µM
concentration at 0.75 h [3, 5]: 39.2 µM
T/C × 100 (cell: toxic) (leukemia L 1210; 60 mg/kg i.v.): toxic
antitumoral activity (in words) (leukemia L 1210; i.v., isomers separately): low activity
concentration at 1.5 h ([4]; after CNCC 500 mg/m^2 p.o.): 20.3 µM
concentration at 1 h ([4]; after CNCC 500 mg/m^2 p.o.): 18.4 µM
concentration at 2 h ([4]; after CNCC 500 mg/m^2 p.o.): 12.7 µM
concentration ([4]; after CNCC 500 mg/m^2 p.o.): 11.1 µM
concentration at 4.5 h ([4]; after CNCC 500 mg/m^2 p.o., 4 H 30 MIN): 3.9 µM
concentration at 5 min ([4]; after CNCC 500 mg/m^2 p.o.): 2.8 µM
concentration at 0.25 h ([4]; after CNCC 500 mg/m^2 p.o.): 8 µM
concentration at 0.5 h ([4]; after CNCC 500 mg/m^2 p.o.): 12 µM
concentration at 0.75 h ([4]; after CNCC 500 mg/m^2 p.o.): 14.8 µM
concentration at 1.5 h [4, 5]: 29.2 µM
concentration at 1 h [4, 5]: 32.9 µM
concentration at 2 h [4, 5]: 15.7 µM
concentration [4, 5]: 7.3 µM
concentration at 5 min [4, 5]: 22.3 µM
concentration at 0.25 h [4, 5]: 42.4 µM
concentration at 0.5 h [4, 5]: 52.9 µM
concentration at 0.75 h [4, 5]: 33.9 µM
